Measurements taken from patent US11117898B2, “Pyrazolo-heteroaryl derivative, preparation method and medical use thereof” (Jiangsu Hengrui Medicine Co., Ltd., priority 2016, dated 2021).

Legend:
[1] = target: human TLR7 (Homo sapiens (Human), UniProt Q9NYK1); assay: Agonistic activity on human TLR7 in HEK-Blue hTLR7 stably transfected cells; format: cell-based; details: for EC50: OD 620 nm
Experimental: The activation effect of the compounds of the present invention on the hTLR7 protein expressed by the HEK-Blue™ hTLR7 stably transfected cells was determined by the following experimental method:
(§1) A bag of HEK-Blue detection dry powder was dissolved in 50 ml of water free of endotoxin, and the solution was then placed in an incubator at 37° C. for 10 minutes followed by sterile filtration to prepare a HEK-Blue detection medium. The compound was firstly formulated into a 20 mM stock solution, then diluted with pure DMSO to a maximum concentration of 6×10^6 nM, and a total of 10 points were obtained by a 3-fold gradient dilution.
(§2) The above formulated compound was firstly diluted 20-fold with the medium, then 20 μl of the diluted compound were added to each well. The supernate was removed from the HEK-Blue™ hTLR7 cells, to which 2-5 ml of pre-warmed PBS were then added. The cells were placed in an incubator for 1-2 minutes, gently pipetted, and counted by trypan blue staining. The cells were re-suspended in the HEK-Blue detection medium to adjust the concentration to 2.2×10^5 cells/ml. 180 μl of cells were added to the above 96-well plate already added with 20 μl of the compounds, and incubated at 37° C. for 6-16 hours.
The activation effect of the compounds of the present invention on human TLR7 can be determined by the above test, and the obtained EC50 values are shown in Table 1.

[2] = target: human TLR8 (Homo sapiens (Human), UniProt Q9NR97); assay: Agonistic activity on human TLR8 in HEK-Blue hTLR8 stably transfected cells; format: cell-based; details: for EC50: OD 620 nm
human TLR8, sequence (Q9NR97 27-1041): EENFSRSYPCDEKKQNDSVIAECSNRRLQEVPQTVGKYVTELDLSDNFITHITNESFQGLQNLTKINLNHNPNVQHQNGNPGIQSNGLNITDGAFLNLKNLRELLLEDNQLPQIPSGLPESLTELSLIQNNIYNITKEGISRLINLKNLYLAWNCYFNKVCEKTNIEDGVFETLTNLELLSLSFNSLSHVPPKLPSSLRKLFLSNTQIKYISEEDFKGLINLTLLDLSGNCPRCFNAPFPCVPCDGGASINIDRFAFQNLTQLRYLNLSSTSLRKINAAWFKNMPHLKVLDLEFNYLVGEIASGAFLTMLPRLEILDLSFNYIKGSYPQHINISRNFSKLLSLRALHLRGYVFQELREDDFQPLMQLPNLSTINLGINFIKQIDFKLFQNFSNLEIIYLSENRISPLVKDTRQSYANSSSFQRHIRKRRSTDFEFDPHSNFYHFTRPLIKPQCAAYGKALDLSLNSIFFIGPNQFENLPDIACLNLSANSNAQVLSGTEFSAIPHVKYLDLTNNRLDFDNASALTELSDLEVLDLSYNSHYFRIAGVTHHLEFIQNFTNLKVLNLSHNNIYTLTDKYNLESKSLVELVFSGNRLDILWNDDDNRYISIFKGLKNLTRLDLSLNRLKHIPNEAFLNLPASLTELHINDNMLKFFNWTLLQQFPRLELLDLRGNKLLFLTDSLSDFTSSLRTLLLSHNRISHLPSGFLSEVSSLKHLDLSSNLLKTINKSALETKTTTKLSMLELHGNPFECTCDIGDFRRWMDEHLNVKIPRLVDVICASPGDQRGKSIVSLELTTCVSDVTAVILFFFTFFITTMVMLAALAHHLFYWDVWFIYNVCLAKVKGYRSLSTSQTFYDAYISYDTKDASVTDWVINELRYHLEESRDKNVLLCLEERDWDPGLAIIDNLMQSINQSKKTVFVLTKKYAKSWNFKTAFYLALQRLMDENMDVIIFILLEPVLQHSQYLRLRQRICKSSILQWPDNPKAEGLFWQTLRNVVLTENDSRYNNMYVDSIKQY
Experimental: The activation effect of the compounds of the present invention on the hTLR8 protein expressed by the HEK-Blue™ hTLR8 stably transfected cells was determined by the following experimental method:
as §1, with “dilution. The compound was firstly diluted 20-fold with the medium, then 20 μl of the diluted compound were added to each well.” for “dilution.”
as §2, with “The” for “The above formulated compound was firstly diluted 20-fold with the medium, then 20 μl of the diluted compound were added to each well. The”, “hTLR8” for “hTLR7”
The activation effect of the compounds of the present invention on human TLR8 can be determined by the above test, and the obtained EC50 values are shown in Table 2.

[3] = tested on: PBMC; assay: Stimulation of the secretion of IFN-α from peripheral blood mononuclear cells (PBMC); format: cell-based, human; details: minimal effective concentration: lowest concentration giving cytokine level at least 3 times the minimum detection limit; 24 hours incubation
Experimental: The ability of the compounds of the present invention to stimulate the secretion of IFN-α from PBMC was determined by the following experimental method:
The compound was diluted with pure DMSO to a maximum concentration of 5 mM, and a total of 9 points were obtained by a 4-fold gradient dilution. 4 μl of the compound were then added to 196 μl of RMPI 1640 medium containing 10% FBS and mixed well. 50 μl of the mixture were taken from each well and added to a new 96-well plate.
All reagents were equilibrated to room temperature. 60 ml of blood and PBS+2% FBS were added to a 250 ml culture flask, gently pipetted, mixed well and diluted. 15 ml of lymphocyte separation solution Ficoll-Paque PREMIUM and then 30 ml of diluted blood were added to a 50 ml PBMC centrifuge tube SepMate™-50. The mixture was centrifuged at 1200 g for 10 minutes at room temperature. The supernatant was taken and then centrifuged at 300 g for 8 minutes. The cells were re-suspended in the RMPI 1640 medium containing 10% FBS and counted, and the number of PBMCs was adjusted to 3.33×10^6 cells/ml. 150 μl of the cell solution were added to the plate added with the compound, and incubated in an incubator at 37° C., in 5.0% CO2 for 24 hours.
The cell culture plate was placed in a centrifuge, and centrifuged at 1200 rpm for 10 minutes at room temperature. 150 μl of the supernatant were taken from each well. The reagents in the human IFN-α kit were first equilibrated to normal temperature. The anti-IFN-α-Eu^3+-Cryptate conjugate and the anti-IFN-α-d2-conjugate were formulated in the dark according to the kit instructions, and both of them were mixed well with the conjugate buffer at a ratio of 1:40. 16 μl of the supernatant obtained by centrifugation were then added to each well. 2 μl of anti-IFN-α-Eu^3+-Cryptate conjugate and anti-IFN-α-d2-conjugate formulated just now were then added to each well. The plate was shaken and mixed well, and incubated in the dark at room temperature for 3 hours.
The PHERAStar was read in the HTRF mode. The lowest compound concentration that stimulated cytokine levels of at least 3 times higher than the minimum detection limit was defined as the minimal effective concentration (MEC) value of the compound in the cytokine stimulation test.
The ability of the compounds of the present invention to stimulate the secretion of IFN-α from PBMC was determined by the above test, and the obtained MEC values are shown in Table 3.

[4] = target: CYP2D6 (Homo sapiens (Human), UniProt P10635); assay: Inhibition of the enzyme activity of CYP2D6 in human liver microsomes; format: in vitro ADME; details: probe substrate dextromethorphan
CYP2D6, sequence (P10635 whole entry): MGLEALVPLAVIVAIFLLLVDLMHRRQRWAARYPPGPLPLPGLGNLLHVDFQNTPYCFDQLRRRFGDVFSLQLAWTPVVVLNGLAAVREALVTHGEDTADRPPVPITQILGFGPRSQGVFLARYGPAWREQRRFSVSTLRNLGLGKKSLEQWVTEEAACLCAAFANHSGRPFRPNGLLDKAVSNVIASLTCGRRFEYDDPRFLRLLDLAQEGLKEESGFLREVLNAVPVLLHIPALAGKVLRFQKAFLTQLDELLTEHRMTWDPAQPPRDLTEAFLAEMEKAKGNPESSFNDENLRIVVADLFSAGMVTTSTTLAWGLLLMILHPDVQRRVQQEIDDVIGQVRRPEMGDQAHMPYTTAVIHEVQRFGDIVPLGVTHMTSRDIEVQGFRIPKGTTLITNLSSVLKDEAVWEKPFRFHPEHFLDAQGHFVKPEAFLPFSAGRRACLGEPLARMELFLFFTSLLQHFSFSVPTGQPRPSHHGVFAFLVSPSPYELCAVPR
Experimental: The effect of the compounds of the present invention on the enzyme activity of CYP2D6 in human liver microsomes was determined by the following experimental method:
(§3) 100 mM PBS buffer was formulated, which was then used to formulate 2.5 mg/ml microsome solution and 5 mM NADPH solution. The 5× concentration of the compound working solution was diluted with PBS gradient (150, 50, 15, 5, 1.5, 0.15, 0.015, 0 μM). The 5× concentration of quinidine working solution was diluted with PBS gradient (150, 50, 15, 5, 1.5, 0.15, 0.015, 0 μM). Dextromethorphan working solution was diluted with PBS to a concentration of 50 μM.
(§4) 20 μl of 2.5 mg/ml microsome solution, 20 μl of 50 μM testosterone working solution, 20 μl of MgCl2 solution and 20 μl of the compound working solution (150, 50, 15, 5, 1.5, 0.15, 0.015, 0 μM, different reaction systems for each concentration) were taken respectively and mixed well. For the positive control group, the compound was replaced with the same concentration of quinidine. The mixture together with 5 mM NADPH solution were pre-incubated at 37° C. for 5 minutes. After 5 minutes, 20 μl of NADPH were added to each well, the reaction was started and incubated for 30 minutes. All the incubated samples were present in duplicate. After 30 minutes, 250 μl of acetonitrile containing internal standard were added to all samples, mixed well, shaken at 800 rpm for 10 minutes, and then centrifuged at 3700 rpm for 10 minutes. 80 μl of the supernatant were taken and analyzed by LC-MS/MS.
The data were calculated by Graphpad Prism to obtain the IC50 values of the compounds on the metabolite site of CYP2D6.

[5] = target: T1, CYP3A4 (Homo sapiens (Human), UniProt P08684); assay: Inhibition of the midazolam metabolite site of CYP3A4 in human liver microsomes; format: in vitro ADME; details: probe substrate midazolam
T1 sequence (P08684 whole entry): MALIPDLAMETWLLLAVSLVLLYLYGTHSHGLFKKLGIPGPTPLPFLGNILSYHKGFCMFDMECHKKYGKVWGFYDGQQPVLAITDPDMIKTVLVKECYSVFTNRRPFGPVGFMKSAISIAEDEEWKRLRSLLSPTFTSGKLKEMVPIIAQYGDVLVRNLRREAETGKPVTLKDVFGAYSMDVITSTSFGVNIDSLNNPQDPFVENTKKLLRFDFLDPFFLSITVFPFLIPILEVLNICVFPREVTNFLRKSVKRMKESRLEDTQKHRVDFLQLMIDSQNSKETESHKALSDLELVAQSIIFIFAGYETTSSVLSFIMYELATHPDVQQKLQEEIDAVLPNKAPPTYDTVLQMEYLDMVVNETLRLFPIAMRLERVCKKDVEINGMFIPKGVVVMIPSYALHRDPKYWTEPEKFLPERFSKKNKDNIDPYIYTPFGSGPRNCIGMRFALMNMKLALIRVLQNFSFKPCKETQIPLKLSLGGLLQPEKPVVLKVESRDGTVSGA
Experimental: The effect of the compounds of the present invention on the enzyme activity of midazolam metabolite site of CYP3A4 in human liver microsomes was determined by the following experimental method:
as §3, with “ketoconazole” for “quinidine”
as §4, with “ketoconazole.” for “quinidine.”
The data were calculated by Graphpad Prism to obtain the IC50 values of the compounds on the midazolam metabolite site of CYP3A4.

[6] = target: T1, CYP3A4; assay: Inhibition of the testosterone metabolite site of CYP3A4 in human liver microsomes; format: in vitro ADME; details: probe substrate testosterone
Experimental: The effect of the compounds of the present invention on the enzyme activity of testosterone metabolite site of CYP3A4 in human liver microsomes was determined by the following experimental method:
as §3, with “ketoconazole” for “quinidine”
as §4, with “ketoconazole.” for “quinidine.”
The data were calculated by Graphpad Prism to obtain the IC50 values of the compounds on the testosterone metabolite site of CYP3A4.

human TLR7, sequence (Q9NYK1 27-1049): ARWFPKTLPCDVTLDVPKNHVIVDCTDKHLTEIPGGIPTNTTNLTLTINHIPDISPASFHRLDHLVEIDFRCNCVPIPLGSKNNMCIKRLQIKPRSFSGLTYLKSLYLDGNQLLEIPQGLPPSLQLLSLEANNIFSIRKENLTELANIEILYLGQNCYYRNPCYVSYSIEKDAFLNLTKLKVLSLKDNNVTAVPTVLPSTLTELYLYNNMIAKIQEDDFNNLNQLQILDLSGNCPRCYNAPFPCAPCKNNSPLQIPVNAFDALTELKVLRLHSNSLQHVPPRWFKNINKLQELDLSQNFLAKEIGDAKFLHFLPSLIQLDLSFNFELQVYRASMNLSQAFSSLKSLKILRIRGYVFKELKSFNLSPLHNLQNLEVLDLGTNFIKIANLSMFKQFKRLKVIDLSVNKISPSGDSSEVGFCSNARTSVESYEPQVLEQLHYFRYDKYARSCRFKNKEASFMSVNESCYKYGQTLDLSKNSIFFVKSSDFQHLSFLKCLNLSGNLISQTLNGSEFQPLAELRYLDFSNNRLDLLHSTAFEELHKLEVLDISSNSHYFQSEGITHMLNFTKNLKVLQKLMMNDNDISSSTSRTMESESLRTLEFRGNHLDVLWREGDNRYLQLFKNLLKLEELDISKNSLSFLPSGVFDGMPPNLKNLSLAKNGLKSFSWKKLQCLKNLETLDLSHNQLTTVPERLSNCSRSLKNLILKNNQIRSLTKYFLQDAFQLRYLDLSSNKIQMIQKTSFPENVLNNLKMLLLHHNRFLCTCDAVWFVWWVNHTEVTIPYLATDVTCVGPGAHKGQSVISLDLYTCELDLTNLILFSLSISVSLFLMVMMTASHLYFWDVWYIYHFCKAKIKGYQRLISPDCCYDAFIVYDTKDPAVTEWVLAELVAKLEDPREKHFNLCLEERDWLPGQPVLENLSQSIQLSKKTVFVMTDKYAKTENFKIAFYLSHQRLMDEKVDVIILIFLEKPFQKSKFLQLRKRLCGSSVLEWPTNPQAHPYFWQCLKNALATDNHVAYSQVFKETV

SMILES | Emax [1] [%] | Emax [2] [%] | EC50 [2] [µM] | EC50 [1] [µM] | MEC to stimulate the secretion of IFN-α from PBMC [3] [nM] | IC50 [4] [µM] | IC50 [5] [µM] | IC50 [6] [µM]
CCCCOc1nc(N)c2cnn(Cc3ccc(CN4CCCC4)cc3)c2n1 [Example 1, 6-Butoxy-1-(4-(pyrrolidin-1-ylmethyl)benzyl)-1H-pyrazolo[3,4-d]pyrimidin-4-amine] | 100 | 8 | > 30 | – | 6 | > 30 | – | –
CCCCOc1nc(N)c2cnn(Cc3cccc(CN4CCC4)c3)c2n1 [Example 5, 1-(3-(Azetidin-1-ylmethyl)benzyl)-6-butoxy-1H-pyrazolo[3,4-d]pyrimidin-4-amine] | – | – | – | – | 41 | – | – | –
CCCCOc1nc(N)c2cnn(Cc3ccc(CN4CCCC4)c(F)c3)c2n1 [Example 9, 6-Butoxy-1-(3-fluoro-4-(pyrrolidin-1-ylmethyl)benzyl)-1H-pyrazolo[3,4-d]pyrimidin-4-amine] | 96 | – | – | 0.128 | – | – | – | –
CCCCOc1nc(N)c2cnn(Cc3cccc(CN4CCCCC4)c3)c2n1 [Example 6, 6-Butoxy-1-(3-(piperidin-1-ylmethyl)benzyl)-1H-pyrazolo[3,4-d]pyrimidin-4-amine] | 91 | 35 | > 6 | 0.233 | – | 10 | 10 | 3

The next lines start with results.

Emax [1] [%] | Emax [2] [%] | EC50 [2] [µM] | EC50 [1] [µM] | SMILES | MEC to stimulate the secretion of IFN-α from PBMC [3] [nM] | IC50 [4] [µM] | IC50 [5] [µM] | IC50 [6] [µM]
85 | 0 | > 30 | 0.335 | CCCNC(=O)c1nc(N)c2cnn(Cc3ccc(CN4CCCC4)cc3)c2n1 [Example 11, 4-Amino-N-propyl-1-(4-(pyrrolidin-1-ylmethyl)benzyl)-1H-pyrazolo[3,4-d]pyrimidine-6-carboxamide] | – | – | – | –
78 | 5 | > 30 | 0.388 | CCCCC(=O)c1nc(N)c2cnn(Cc3ccc(CN4CCCC4)cc3)c2n1 [Example 12] | – | 16 | 16 | > 30
104 | 2 | > 30 | 0.217 | COCC(C)Oc1nc(N)c2cnn(Cc3ccc(CN4CCCC4)cc3)c2n1 (stereo not shown) [Example 8, 6-((1-Methoxypropan-2-yl)oxy)-1-(4-(pyrrolidin-1-ylmethyl)benzyl)-1H-pyrazolo[3,4-d]pyrimidin-4-amine] | – | – | – | –
79 | 0 | > 30 | 0.349 | CCCCNc1nc(N)c2cnn(Cc3ccc(CN4CCCC4)cc3)c2n1 [Example 10, N^6-Butyl-1-(4-(pyrrolidin-1-ylmethyl)benzyl)-1H-pyrazolo[3,4-d]pyrimidine-4,6-diamine] | – | – | – | –
